The values that follow come from patent US20040151698A1, “Microbial pesticide active against plant fungal pathogens and process for preparation thereof” (priority 2000, published 2004).

“And” between values parts separate entries of the source, which are not always exact repeats. Equal entries are not always repeated.

One assay concerns A. solani. Briefly: Field test against early blight in potato. The class given is in vivo, Alternaria solani. The conditions noted are these: sprayed at a usual concentration; for Morbidity (%) Avg.: average of 3 repeats. As for the experimental part:
(§1) Greenhouse and field tests of the fungicidal activity of the antagonistic microbe against various pathogenic fungi are conduced. For this, tomatoes are cultivated both in a greenhouse and a field. The tomatoes cultivated in a greenhouse and a field are treated with the spore suspension of the novel antagonistic microbe of the present invention and then exposed to pathogenic fungi, B. cinerea causing gray mold rot, C. fulvum causing leaf mold, and A. solani causing early blight, separately. The experiment is performed according to a randomized block design with three repeat measures. For comparison, procymidone for use in the control of gray mold rot, propineb for use in the control of leaf mold, and azoxystrobin for use in the control of early blight are employed. Morbidity is determined by examining the infection of all tomatoes one by one or by a sampling method. A significance test is carried out according to Duncan's multiple range test (DMRT).
To determine the fungicidal activity of the antagonistic microbe of the present invention against A. solani causing early blight, tomato was cultivated in a field. The cultivation was performed in the following schedule;
June 10 1st Treatment with the antagonistic microbe (spray amount 300 L/10 a)
July 5 2nd Treatment with the antagonistic microbe (spray amount 300 L/10 a)
July 13 Measuring mobidity
The experiment was performed in a randomized block design with three repeat measures. For comparison, azoxystrobin was sprayed as a control at a usual concentration. Morbidity was determined by examining the infection of 20 stocks of potatoes per repeat measure and attack frequency was calculated as in Experimental Example 4-2.

The next assay deals with B. cinerea. Kind of assay: Greenhouse test against tomato gray mold rot. The class given is in vivo, Botrytis cinerea. The conditions noted are these: sprayed at a usual concentration. As for the experimental part: as §1
To determine the fungicidal activity of the antagonistic microbe of the present invention against B. cinerea causing gray mold rot, tomato plants were cultivated in a greenhouse with a dimension of 23.7 m in length, 7.0 m in width and 2.3 m in height. The cultivation was performed according to the following schedule;
February 11 1st Treatment with the antagonistic microbe (spray amount 300 L/10 a)
February 20 2nd Treatment with the antagonistic microbe (spray amount 300 L/10 a)
March 2 3rd Treatment with the antagonistic microbe (spray amount 330 L/10 a)
March 22 Measuring mobidity
The tomato plants treated with the antagonistic microbe occupied an area of 5.4 m2 and the experiment was performed in triplicate in a randomized block design. For comparison, Procymidone was sprayed as a control at a usual concentration. The spore suspension of the antagonistic microbe prepared in Example 2 was added directly to water to bring about 500- and 1,000-fold dilutions of the population. Morbidity was determined by examining the infection of all tomato plants one by one. A significance test was performed according to Duncan's multiple range test (DMRT).

The test system of another assay is C. fulvum. Briefly: Greenhouse test against leaf mold in tomato. The assay is classed as in vivo, Cladosporium fulvum. The conditions noted are these: sprayed at a usual concentration; for Morbidity (%) Avg.: average of 3 repeats. As for the experimental part:
as §1
To determine the fungicidal activity of the antagonistic microbe of the present invention against C. fulvum causing leaf mold, tomato plants were cultivated in the same manner as in Experimental Example 4-1 in a greenhouse with a dimension of 23.7 m in length, 7.0 m in width and 2.3 m in height. The experiment was performed in triplicate in a randomized block design. For comparison, propineb was sprayed as a control at a usual concentration. Morbidity was determined by examining the infection of 20 stalks of tomatoes per repeat measure and attack frequency was calculated according to the following equation: [formula]
wherein the factor is set to be: 0 when no leaves are infected; 1 when one forth of the total leaves are infected; 2 when half of the total leaves are infected and some of them are withered; 3 when three fourths of the total leaves are infected and half of them are withered; and 4 when two thirds are withered to death.

With `CO/C=C(/C(=O)OC)c1ccccc1Oc1cc(Oc2ccccc2C#N)ncn1` [Azoxytrobin, azoxystrobin], in the assay with A. solani, the “Control value(%)” value is on record as 57.6% and the “Morbidity (%) Avg.” value was 9.2 A %. Also, the “Morbidity (%) Avg.” value in the assay on A. solani (listed as azoxystrobin) stood at 9.2%. Also, the “Morbidity (%) 1” value in the assay on A. solani (repeat 1) was 9.3%. In the assay with A. solani (repeat 2), the “Morbidity (%) 2” value was found to be 10.2%. In the assay on A. solani (repeat 3), the “Morbidity (%) 3” value was 8.2%.

For `CC12CC1(C)C(=O)N(c1cc(Cl)cc(Cl)c1)C2=O` (centres unmarked) [Procymidone], the “Control value(%)” value with B. cinerea was found to be 40.2%. The “Morbidity (%) Avg.” value in the assay with B. cinerea (average of 3 repeats) is 10.4% and 10.4 B %. The “Morbidity (%) 1” value in the assay with B. cinerea (repeat 1) is listed as 12.3%. For the same compound, in the assay on B. cinerea (repeat 2), the “Morbidity (%) 2” value is 10.6%. Moreover, in the assay with B. cinerea (repeat 3), the “Morbidity (%) 3” value is recorded as 8.2%.

Take propineb: in the assay with C. fulvum, the “Control value(%)” value was 42.9%. The entries for the “Morbidity (%) Avg.” value with C. fulvum and in the assay on C. fulvum (listed as propineb) were 12.0 B % and 21.9%, respectively. In the assay on C. fulvum (repeat 1), the “Morbidity (%) 1” value was 10.3%. Further, the “Morbidity (%) 2” value in the assay on C. fulvum (repeat 2) was 11.2%. The “Morbidity (%) 3” value in the assay on C. fulvum (repeat 3) came out at 14.5%.
